Like-named read-outs stand apart in the source and are kept apart here.
How the values were obtained:
[1] = system: KRAS G12V mutant NCI-H727 cells; assay: Proliferation inhibition of NCI-H727 cells, 3D CellTiter-Glo assay (Method B); type: cell-based, human; details: Homo sapiens, NCI-H727, 120 h, 3D culture with 0.65% methylcellulose, 5 days, CTG
Description: NCI-H727 cells (Nanjing Kebai Biotechnology Co., Ltd., catalog number CBP60182, adherent, culture medium RPMI-1640+10%FBS (GIBCO, Cat#10091-148)) were cultured at 37°C, 5% CO2, and 95% humidity.
3D cell viability assay: Cells in the logarithmic growth phase were harvested and counted using a platelet counter. Cell viability was assessed using the trypan blue exclusion method to ensure a viability of over 90%. The 3D cell culture medium was prepared by adding 1% MC (methylcellulose, Sigma, Cat#M0512) to RPMI-1640 medium and 10% FBS. The cell concentration was adjusted to approximately 25,000 cells/mL using the 3D medium, and the methylcellulose (MC) content was set to 0.65%. Then, 80 µL of cell suspension was added to each 96-well clear, flat-bottomed, black-walled plate (Greiner, Cat# 655096). The cells in the 96-well plates were cultured overnight at 37°C and 5% CO2.
Drug preparation for IC50 assay: A 5-fold drug solution was prepared using culture medium. 20 µL of the drug solution was added to each well of a 96-well plate seeded with cells to achieve a working concentration of up to 10 µM, with a 3× dilution, and 9 concentrations. 2 replicate wells for each drug concentration were set. The cells in the drug-treated 96-well plates were cultured at 37°C and 5% CO2 for additional 5 days, then CTG assay (CellTiter-Glo® Luminescent Cell Viability Assay (Promega, Cat#G7573)) were performed.
The cell plate was equilibrated to room temperature for 30 minutes and the CTG reagent was thawed. 50 µL of CTG solution was added to each well for detection and the plate was shaken on an orbital shaker for 5 minutes to lyse the cells. The cell plate was then placed at room temperature for 25 minutes to stabilize the cryo-luminescence signal, and the cryo-luminescence value was read (EnVision® multi-plate reader, PerkinElmer#2105).
(§1) Data was analyzed using GraphPad Prism software. The dose-response-inhibition equation was used to fit the data to obtain the dose-response curve, and the IC50 value (nM) was calculated accordingly. [formula]

[2] = system: KRAS G12D mutant AGS cells; assay: Proliferation inhibition of AGS cells, CellTiter-Glo assay; type: cell-based, human; details: Homo sapiens, AGS, 72 h, 3 days, CTG; read-out: AGS IC50/nM
Description: AGS cells (Nanjing Kebai Biotechnology Co., Ltd., catalog number CBP60476, adherent, culture medium (F12K Nutrient Mixture+10% FBS (GIBCO, Cat#10091-148) were cultured at 37°C, 5% CO2, and 95% humidity at a density of 1500 cells/well. Cells in the logarithmic growth phase were harvested and counted using a Countstar automated cell counter based on the classic trypan blue staining method to ensure cell viability was above 90%. The cell concentration was adjusted, and 80 µL of cell suspension was added to each 96-well clear flat-bottomed, black-walled plate (Greiner, Cat# 655090). The cells in the 96-well plates were then cultured at 37°C and 5% CO2.
Drug preparation for IC50 assay: A 5-fold drug solution was prepared using culture medium. 20 µL of the drug solution was added to each well of a 96-well plate seeded with cells to achieve a working concentration of up to 10 µM, with a 3 × dilution, and a total of 9 concentrations. 2 replicate wells for each drug concentration were set. The cells in the drug-treated 96-well plates were cultured at 37°C and 5% CO2 for additional 3 days and then CTG assay were performed.
The cell plate was equilibrated to room temperature for 30 minutes and the CTG reagent (CellTiter-Glo® Luminescent Cell Viability Assay (Promega, Cat# G7573)) was thawed. 50 µL of CTG solution was added to each well and the plate was shaken on an orbital shaker for 2 minutes to lyse the cells. The cell plate was placed at room temperature for 10 minutes to stabilize the cryo-luminescence signal and the cryo-luminescence value was read (EnVision® Multifunctional microplate reader, PerkinElmer #2105).
as §1

[3] = Method B, read-out: NCI-H727 IC50/nM

Row | IC50 [1, 3] [nM] | IC50 [2] [nM] | IC50 ([1]; read-out: NCI-H727 IC50/nM, Method B) [nM] | Structure (SMILES)
1 | 39.8 | 19.7 |  | COCc1cc2c(N3Cc4cc(C(=O)N(C)C)nn4CC[C@@H]3C)nc(OC[C@]3(C)CN(C)CC/C3=C\F)nc2c(F)c1-c1c(F)ccc2sc(N)c(C#N)c12 (single isomer, unassigned) [Example 226A]
2 | 2.2 | 1.7 |  | CCN1CC/C(=C\F)[C@](C)(COc2nc(N3Cc4c(COC)c(C(=O)N(C)C)nn4CC[C@@H]3C)c3cc(C(F)(F)F)c(-c4ncc(F)c5sc(N)c(C#N)c45)c(F)c3n2)C1 (single isomer, unassigned) [Example 230A]
3 | 4.4 | 2.5 |  | CCN1CC/C(=C\F)[C@](C)(COc2nc(N3Cc4cc(C(=O)N(C)C)nn4CC[C@@H]3C)c3cc(Cl)c(-c4ncc(F)c5sc(N)c(C#N)c45)c(F)c3n2)C1 (single isomer, unassigned) [Example 231A]
4 | < 1.5 | < 1.5 |  | CCN1CC/C(=C\F)[C@](C)(COc2nc(N3Cc4c(OC)c(C(=O)N(C)C)nn4CC[C@@H]3C)c3cc(Cl)c(-c4c(F)ccc5sc(N)c(C#N)c45)c(F)c3n2)C1 (single isomer, unassigned) [Example 234A]
5 | < 1.5 | < 1.5 |  | CCN1CC/C(=C\F)[C@](C)(COc2nc(N3Cc4cc(C(=O)N(C)C)nn4CC[C@@H]3C)c3cc(C(F)(F)F)c(-c4c(F)ccc5sc(N)c(C#N)c45)c(F)c3n2)C1 (single isomer, unassigned) [Example 248A]

Second part, the molecule before the results:

Row | Structure (SMILES) | IC50 [1, 3] [nM] | IC50 [2] [nM] | IC50 ([1]; read-out: NCI-H727 IC50/nM, Method B) [nM]
6 | CCN1CC/C(=C\F)[C@](C)(COc2nc(N3Cc4c(COC)c(C(=O)N(C)C)nn4CC[C@@H]3C)c3cc(Cl)c(-c4ncc(F)c5sc(N)c(C#N)c45)c(C)c3n2)C1 (single isomer, unassigned) [Example 238A] | 6.5 | 11.5 | 
7 | CCN1CC/C(=C\F)[C@](C)(COc2nc(N3Cc4cc(C(=O)N(C)C)nn4CC[C@@H]3C)c3cc(Cl)c(-c4c(F)ccc5sc(N)c(C#N)c45)c(C(F)F)c3n2)C1 (single isomer, unassigned) [Example 242A] | 6.3 | 5.4 | 
8 | CN1CC/C(=C\F)[C@](C)(COc2nc(N3CC[C@@H](C#N)[C@H](O)C3)c3cc(C(F)(F)F)c(-c4c(F)ccc5sc(N)c(C#N)c45)c(F)c3n2)C1 (single isomer, unassigned) [Example 252] | 2.1 | 41.5 | 
9 | CN1CC[C@H](C(F)F)[C@](C)(COc2nc(N3CCCn4nc(C(=O)N(C)C)cc4C3)c3cc(C(F)(F)F)c(-c4cccc5sc(N)c(C#N)c45)c(F)c3n2)C1 [Example 7, 5-(7-(2-Amino-3-cyanobenzo[b]thiophene-4-yl)-2-(((3S,4S)-4-(difluoromethyl)-1,3-dimethylpiperidine-3-yl)methoxy)-8-fluoro-6-(trifluoromethyl)quinazoline-4-yl)-N,N-dimethyl-5,6,7,8-tetrahydro-4H-pyrazolo[1,5-a][1,4]diazepine-2-formamide] | 13.1 | 6.7 | 
10 | CN1CC/C(=C\F)[C@](C)(COc2nc(N3CCCn4nc(C(=O)N(C)C)cc4C3)c3cc(C(F)(F)F)c(-c4cccc5sc(N)c(C#N)c45)c(F)c3n2)C1 [Example 8, 5-(7-(2-Amino-3-cyanobenzo[b]thiophene-4-yl)-8-fluoro-2-(((S,E)-4-(fluoromethylene)-1,3-dimethylpiperidine-3-yl)methoxy)-6-(trifluoromethyl)quinazoline-4-yl)-N,N-dimethyl-5,6,7,8-tetrahydro-4H-pyrazolo[1,5-a][1,4]diazepine-2-formamide] | 21.3 | 8.1 | 
11 | CN1CC/C(=C\F)[C@](C)(COc2nc(N3CCOC[C@@](C)(O)C3)c3cc(C(F)(F)F)c(-c4ccc(F)c5sc(N)c(C#N)c45)c(F)c3n2)C1 [Example 16] |  | 13.2 | 5
12 | [2H]C([2H])([2H])N1CC[C@H](C(F)F)[C@](C)(COc2nc(N3CCCn4nc(C(=O)N(C)C)cc4C3)c3cc(C(F)(F)F)c(-c4c(F)ccc5sc(N)c(C#N)c45)c(F)c3n2)C1 [Example 67, 5-(7-(2-Amino-3-cyano-5-fluorobenzo[b]thiophene-4-yl)-2-(((3S,4S)-4-(difluoromethyl)-3-methyl-1-(methyl-d3)piperidine-3-yl)methoxy)-8-fluoro-6-(trifluoromethyl)quinazoline-4-yl)-N,N-dimethyl-5,6,7,8-tetrahydro-4H-pyrazolo[1,5-a][1,4]diazepine-2-formamide] | 6.3 | 1.75 | 
13 | [2H]C([2H])([2H])N1CC/C(=C\F)[C@](C)(COc2nc(N3CCCn4nc(C(=O)N(C)C)cc4C3)c3cc(C(F)(F)F)c(-c4c(F)ccc5sc(N)c(C#N)c45)c(F)c3n2)C1 [Example 68, 5-(7-(2-amino-3-cyano-5-fluorobenzo[b]thiophene-4-yl)-8-fluoro-2-(((S,E)-4-(fluoromethylene)-3-methyl-1-(methyl-d3)piperidine-3-yl)methoxy)-6-(trifluoromethyl)quinazoline-4-yl)-N,N-dimethyl-5,6,7,8-tetrahydro-4H-pyrazolo[1,5-a][1,4]diazepine-2-formamide] | 6.4 | 1.9 | 
14 | [2H]C([2H])([2H])N1CC[C@H](C(F)F)[C@](C)(COc2nc(N3CCOC[C@@](C)(O)C3)c3cc(Cl)c(-c4cccc5sc(N)c(C#N)c45)c(F)c3n2)C1 [Example 83] | 20.2 | 38.2 | 
15 | [2H]C([2H])([2H])N1CC/C(=C\F)[C@](C)(COc2nc(N3CCOC[C@@](C)(O)C3)c3cc(Cl)c(-c4cccc5sc(N)c(C#N)c45)c(F)c3n2)C1 [Example 84, 2-Amino-4-(6-chloro-8-fluoro-2-(((S,E)-4-(fluoromethylene)-3-methyl-1-(methyl-d3)piperidine-3-yl)methoxy)-4-((S)-6-hydroxy-6-methyl-1,4-oxazacycloheptane-4-yl)quinazoline-7-yl)benzo[b]thiophene-3-carbonitrile] | 77.7 | 59 | 
16 | [2H]C([2H])([2H])N1CC[C@H](C(F)F)[C@](C)(COc2nc(N3CCOC[C@@](C)(O)C3)c3cc(C#N)c(-c4cccc5sc(N)c(C#N)c45)c(F)c3n2)C1 [Example 91] | 48.5 | 84.7 | 
17 | [2H]C([2H])([2H])N1CC[C@H](C(F)F)[C@](C)(COc2nc(N3CCCn4nc(C(=O)N(C)C)cc4C3)c3cc([N+](=O)[O-])c(-c4cccc5sc(N)c(C#N)c45)c(F)c3n2)C1 [Example 95, 5-(7-(2-Amino-3-cyanobenzo[b]thiophene-4-yl)-2-(((3S,4S)-4-(difluoromethyl)-3-methyl-1-(methyl-d3)piperidine-3-yl)methoxy)-8-fluoro-6-nitroquinazoline-4-yl)-N,N-dimethyl-5,6,7,8-tetrahydro-4H-pyrazolo[1,5-a][1,4]diazepine-2-formamide] | 36.1 | 10.5 | 
18 | [2H]C([2H])([2H])N1CC/C(=C\F)[C@](C)(COc2nc(N3CCCn4nc(C(=O)N(C)C)cc4C3)c3cc([N+](=O)[O-])c(-c4cccc5sc(N)c(C#N)c45)c(F)c3n2)C1 [Example 98] | 27.1 | 15.8 | 
19 | [2H]C([2H])([2H])N1CCC(C(F)F)C(C)(COc2nc(N3CCOCC(C)(O)C3)c3cc(C(F)(F)F)c(-c4ccc(F)c5sc(N)c(C#N)c45)c(F)c3n2)C1 (stereo not drawn) [Example 99] | 2.4 | 13.1 | 
20 | CN1CC/C(=C\F)[C@](C)(COc2nc(N3CCCn4nc(C(=O)N(C)C)cc4C3)c3cc(C(F)F)c(-c4cccc5sc(N)c(C#N)c45)c(F)c3n2)C1 [Example 100] | 47.7 | 20 | 
21 | CN1CCC(=CF)C(C)(COc2nc(N3CCC(C#N)C(O)C3)c3cc(C(F)(F)F)c(-c4cccc5sc(N)c(C#N)c45)c(F)c3n2)C1 (stereo not drawn) [Example 105] | 26.9 | 338 | 
